Laboratory results taken from patent publication US5430031A, “Serotoninergic ergoline derivatives” (Farmitalia Carlo Erba S.r.l., priority 1992, dated 1995).
Where two headings read alike, the source gives them in different places.

What was measured:
[1] = target: T1, serotonin 1A (5-HT1A) receptor (Rattus norvegicus, UniProt P19327); test: 5-HT1A receptor affinity, 3H-8-OH-DPAT binding test (Experiment 1)
T1 construct: Freezed hippocampus dissected out from rats were homogenized; from tissue; host or cells: rat hippocampus, crude synaptosome membranes
T1 sequence (P19327 1-422): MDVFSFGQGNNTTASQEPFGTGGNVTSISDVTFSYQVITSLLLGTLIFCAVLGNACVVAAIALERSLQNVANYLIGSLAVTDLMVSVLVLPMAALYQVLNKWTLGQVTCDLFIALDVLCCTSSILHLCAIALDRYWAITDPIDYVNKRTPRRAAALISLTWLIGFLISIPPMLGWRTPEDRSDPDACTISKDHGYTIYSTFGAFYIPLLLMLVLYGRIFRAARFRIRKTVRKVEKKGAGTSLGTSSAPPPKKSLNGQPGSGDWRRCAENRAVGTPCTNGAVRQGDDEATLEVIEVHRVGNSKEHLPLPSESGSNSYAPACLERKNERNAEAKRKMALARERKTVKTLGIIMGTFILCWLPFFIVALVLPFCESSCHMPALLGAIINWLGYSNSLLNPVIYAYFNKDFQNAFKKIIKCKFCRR
Procedure: Experiment 1: affinity for serotonin 1A (5-HT1A) receptor [^3 H-8-Hydroxy-2-dipropylaminotetralin (^3 H-8-OH-DPAT)binding test]
After completion of reaction, the suspension was centrifuged at 40,000×g for 20 minutes at 0° C.
Then to the mixture was added 5 ml of ice-cold 50 mM Tris-CHI buffer (pH 7.4) rapidly vacuum-filtered through Whatman® GF/B filters and was washed twice with 5 ml of the same buffer. The radioactivity of the residue remaining on the filters was measured by liquid scintillation counter. Nonspecific binding was determined under the presence of 10^-5 M serotonin (5-HT).

[2] = target: T2, dopamine 2 (D2) receptor (Rattus norvegicus, UniProt P61169); test: D2 receptor affinity, 3H-Spiperone binding test (Experiment 3); details: 3H-Spiperone 0.2 nM, corpus striatum, 37° C., 20 minutes; read-out: RECEPTOR BINDING I-C50 D2
T2 construct: Freezed corpus striatum dissected out from rats were homogenized; from tissue; host or cells: rat corpus striatum, crude synaptosome membranes
T2 sequence (P61169 whole entry): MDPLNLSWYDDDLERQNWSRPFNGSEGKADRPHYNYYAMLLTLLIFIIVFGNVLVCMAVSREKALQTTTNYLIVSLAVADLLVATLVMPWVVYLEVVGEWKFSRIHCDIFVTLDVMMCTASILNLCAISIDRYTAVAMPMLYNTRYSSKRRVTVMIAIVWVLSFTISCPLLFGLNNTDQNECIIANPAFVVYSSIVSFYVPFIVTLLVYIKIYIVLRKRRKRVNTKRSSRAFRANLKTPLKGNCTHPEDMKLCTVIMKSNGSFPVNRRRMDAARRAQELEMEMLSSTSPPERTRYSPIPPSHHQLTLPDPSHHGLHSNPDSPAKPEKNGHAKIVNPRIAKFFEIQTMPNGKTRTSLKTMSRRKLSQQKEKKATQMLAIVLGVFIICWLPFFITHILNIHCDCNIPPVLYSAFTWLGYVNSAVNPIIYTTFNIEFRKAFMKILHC
Procedure: Experiment 3: affinity for dopamine 2 (D2)receptor (^3 H-Spiperone binding test.)
The resulting pellet was homogenized in 150 volumes of 50 mM Tris-HCl buffer (PH 7.1) containing 120 mM potassium chloride, 2 mM calcium chloride, 1 mM magnesium chloride, 0,1% ascorbic acid and 10 μM pargyline. The suspension was incubated at 37° C. for 10 minutes and then provided as synaptosome membranes solution for the next assays.
To the aliquots (900μ) of synaptosome membranes solution were added 50 μl of ^3 H-Spiperone solution at the terminal concentration of 0.2 nM and 50 μl of test compound solution or 50 μl of its medium, and incubated at 37° C. for 20 minutes. After completion of the reaction, the mixture was rapidly vacuum-filtered through Whatman® GF/B filters. The filters were washed three times with 5 ml of the above buffer, and then the radioactivity of the residue remaining on the filters was measured by liquid scintillation counter.

[3] = target: serotonin 2 (5-HT2) receptor (Rattus norvegicus, UniProt P14842); test: 5-HT2 receptor affinity, 3H-Ketanserin binding test (Experiment 2)
Sequence of serotonin 2 (5-HT2) receptor (P14842 whole entry): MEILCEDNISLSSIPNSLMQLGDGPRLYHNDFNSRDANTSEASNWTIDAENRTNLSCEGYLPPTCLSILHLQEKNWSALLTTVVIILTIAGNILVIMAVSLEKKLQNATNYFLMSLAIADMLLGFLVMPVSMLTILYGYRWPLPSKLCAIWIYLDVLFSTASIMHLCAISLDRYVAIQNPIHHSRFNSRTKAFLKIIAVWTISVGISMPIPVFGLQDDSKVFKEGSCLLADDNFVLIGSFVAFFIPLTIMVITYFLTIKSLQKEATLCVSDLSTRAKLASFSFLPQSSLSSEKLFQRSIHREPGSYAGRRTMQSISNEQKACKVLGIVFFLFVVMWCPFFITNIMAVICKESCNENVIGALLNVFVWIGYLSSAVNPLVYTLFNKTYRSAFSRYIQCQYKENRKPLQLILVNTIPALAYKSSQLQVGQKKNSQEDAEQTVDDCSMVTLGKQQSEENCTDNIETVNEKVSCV
Procedure: Experiment 2: affinity for serotonin 2(5-HT2)receptor (^3 H-Ketanserin binding test).
The suspension was centrifuged at 40,000×g for 20 minutes at 0° C. again. The resulting pellet was homogenized in 100 volumes of the above buffer and provided as synaptosome membranes solution for the next assay.
To the aliquots (900μ) of synaptosome membranes solution were added 50 μl solution of ^3 H-Ketanserin solution at the terminal concentration of 0.2 mM and 50 μl of test compound or its medium, and incubated at 37° C. for 20 minutes. After completion of the reaction, the mixture was rapidly vacuum-filtered through Whatman® GF/B filters. The filters were washed three times with 5 ml of the above buffer, and then the radioactivity of the residue remaining on the filters was measured by liquid scintillation counter. Non specific binding was determined under the presence of 10 μM of mianserin.

[4] = test system: group-caged mice; test: stress-induced hyperthermia, screening model of anxiety; type: in vivo; details: Mouse, ip
Source text: This procedure is based upon the antagonism of an increase in rectal temperature observed in group-caged mice as they are being removed from their cohorts.

Structure (SMILES) | IC50 ([1]; read-out: RECEPTOR BINDING I-C50 5-HT1A, 3H-8-OH-DPAT 0.2 nM, rat hippocampus, 37° C., 10 minutes) [nM] | IC50 [2] [nM] | IC50 ([3]; read-out: RECEPTOR BINDING I-C50 5-HT2, 3H-Ketanserin 0.2 mM (so in the source), rat cerebral cortex, 37° C., 20 minutes) [nM] | IC50 [1] [nM] | IC50 [3] [nM] | ED50 [4] [mg/kg]
COC(=O)C1CC2c3cc(C(C)(C)C)cc4[nH]c(SC)c(c34)CC2N(C)C1 (stereo not drawn) [Example 1, 2-Thiomethyl-6-methyl-8β-methoxycarbonyl (13,14)-t-butyl-ergoline] | 30 | 5200 | 6700 | – | – | –
COC(=O)[C@@H]1C[C@@H]2c3cc(C(C)(C)C)cc4[nH]cc(c34)C[C@H]2N(C)C1 [Example 2, 6-Methyl-8β-methoxycarbonyl-13-t-butyl-ergoline] | – | 2770 | – | 10 | 1870 | –
CN1C[C@H](CO)C[C@@H]2c3cc(C(C)(C)C)cc4[nH]cc(c34)C[C@H]21 [Example 3, 6-Methyl-8β-hydroxymethyl-13-t-butyl-ergoline] | – | 4450 | – | 10 | 1100 | –
CN1C[C@H](CN)C[C@@H]2c3cc(C(C)(C)C)cc4[nH]cc(c34)C[C@H]21 [Example 4, 6-Methyl-8β-aminomethyl-13-t-butyl-ergoline] | – | 3330 | – | 10 | 700 | –
CN1CC(CNC(=O)Cc2ccccc2)CC2c3cc(C(C)(C)C)cc4[nH]cc(c34)CC21 (stereo not drawn) [Example 6, 6-Methyl-8β.phenylacetylaminomethyl-13-t-butyl-ergoline] | – | 1250 | – | 8 | 700 | 0.06
CN1C[C@H](CNC(=O)C(C)(C)C)C[C@@H]2c3cc(C(C)(C)C)cc4[nH]cc(c34)C[C@H]21 [Example 7, 6-Methyl-8β-pivaloylaminomethyl-13-t-butyl-ergoline] | – | 5100 | – | 10 | 1200 | 0.06
CN1C[C@H](CNC(=O)c2ccncc2)C[C@@H]2c3cc(C(C)(C)C)cc4[nH]cc(c34)C[C@H]21 [Example 8, 6-Methyl-8β-isonicotinoylaminomethyl-13-t-butyl-ergoline] | – | 2900 | – | 80 | 2100 | –
CN1C[C@H](CNC(=O)c2cncc(Br)c2)C[C@@H]2c3cc(C(C)(C)C)cc4[nH]cc(c34)C[C@H]21 [Example 9, 6-methyl-8β-(5-bromo-nicotinoyl)aminomethyl-13-t-butyl-ergoline] | – | 2100 | – | 10 | 1100 | 0.03
CCOC(=O)NC[C@@H]1C[C@@H]2c3cc(C(C)(C)C)cc4[nH]cc(c34)C[C@H]2N(C)C1 [Example 11, 6-Methyl-8β-ethoxycarbonylaminomethyl-13-t-butyl-ergoline] | – | 3100 | – | 50 | 3480 | 0.06
CN1C[C@H](CNC(=O)Nc2ccccc2)C[C@@H]2c3cc(C(C)(C)C)cc4[nH]cc(c34)C[C@H]21 [Example 12, 6-Methyl-8β-phenylaminocarbonylaminomethyl-13-t-butyl-ergoline] | – | 2100 | – | 10 | 6150 | –
CN1C[C@H](CNC(=O)C2CCCCC2)C[C@@H]2c3cc(C(C)(C)C)cc4[nH]cc(c34)C[C@H]21 [Example 13, 6-Methyl-8β-cyclohexylcarbonylaminomethyl-13-t-butyl-ergoline] | – | 1700 | – | 5 | 1100 | –
Cc1cc(C(=O)NCC2CC3c4cc(C(C)(C)C)cc5[nH]cc(c45)CC3N(C)C2)nn1C (stereo not drawn) [Example 16, 6-Methyl-8β-(1,5-dimethyl-3-pyrazoyl)aminomethyl-13-t-butyl-ergoline] | – | – | – | – | – | 0.06
Cc1nc(C(=O)NCC2CC3c4cc(C(C)(C)C)cc5[nH]cc(c45)CC3N(C)C2)cs1 (stereo not drawn) [Example 17, 6-Methyl-8β-(2-methyl-4-thiazoyl)aminomethyl-13-t-butyl-ergoline] | – | – | – | – | – | 0.06
